Measured values published in patent US4780281A, “Method for assay of peroxidase enzyme or reducing substrate activity” (Wayne State University, priority 1985, dated 1988).

What was measured:
cytochrome P-450 = experiment: PPHP as peroxidase substrate; format: biochemical
From the text: (§1) A practical method is described for the determination of peroxidase enzyme activity that monitors the ability of enzyme preparations to reduce PPHP in the presence of a reducing substrate. […] The alcohol product and hydroperoxide substrate are conveniently separated by HPLC and reliably quantitated by ultraviolet detection. These properties make PPHP an ideal substrate for the assay. […] Thus, the procedure is a general assay for peroxidase activity.

glutathione peroxidase = molecular target: T1, glutathione peroxidase (Homo sapiens, UniProt P07203); experiment: PPHP as peroxidase substrate; format: biochemical
T1 sequence (P07203 1-203): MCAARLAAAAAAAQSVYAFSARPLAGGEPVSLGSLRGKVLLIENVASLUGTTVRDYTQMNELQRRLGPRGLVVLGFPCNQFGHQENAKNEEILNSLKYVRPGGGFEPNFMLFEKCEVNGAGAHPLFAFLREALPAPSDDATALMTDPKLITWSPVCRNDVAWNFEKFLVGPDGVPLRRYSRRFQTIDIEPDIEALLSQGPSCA
From the text: as §1

catalase = molecular target: T2, catalase (Homo sapiens, UniProt P04040); experiment: PPHP as peroxidase substrate; format: biochemical
T2 sequence (P04040 2-527 limits assumed): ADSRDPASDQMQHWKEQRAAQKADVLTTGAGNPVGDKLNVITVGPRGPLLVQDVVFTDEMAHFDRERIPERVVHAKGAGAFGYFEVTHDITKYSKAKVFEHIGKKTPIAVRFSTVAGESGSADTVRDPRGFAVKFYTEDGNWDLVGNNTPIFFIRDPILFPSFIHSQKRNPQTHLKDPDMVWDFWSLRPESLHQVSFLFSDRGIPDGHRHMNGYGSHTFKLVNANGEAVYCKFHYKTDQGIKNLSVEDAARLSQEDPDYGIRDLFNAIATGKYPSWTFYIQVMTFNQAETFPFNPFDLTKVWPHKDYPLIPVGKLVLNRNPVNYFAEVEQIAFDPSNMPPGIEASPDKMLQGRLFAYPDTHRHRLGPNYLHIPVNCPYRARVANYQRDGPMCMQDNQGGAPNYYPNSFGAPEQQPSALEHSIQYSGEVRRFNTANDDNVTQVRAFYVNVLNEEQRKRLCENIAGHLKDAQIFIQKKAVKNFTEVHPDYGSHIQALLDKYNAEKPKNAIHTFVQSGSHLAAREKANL
From the text: as §1

lactoperoxidase = lactoperoxidase (Bos taurus, UniProt P80025); experiment: PPHP as peroxidase substrate; format: biochemical
From the text: as §1

Stability of PPHP = format: physicochemical; conditions: protected from light and metals
Solubility of PPHP = format: physicochemical; conditions: aqueous buffers
Prostaglandin H Synthase = molecular target: T3, Prostaglandin H Synthase (Ovis aries, UniProt P05979); experiment: Reducing substrate efficiency for PPHP reduction, conditions as for Table 1; format: biochemical
T3 sequence (P05979 25-600): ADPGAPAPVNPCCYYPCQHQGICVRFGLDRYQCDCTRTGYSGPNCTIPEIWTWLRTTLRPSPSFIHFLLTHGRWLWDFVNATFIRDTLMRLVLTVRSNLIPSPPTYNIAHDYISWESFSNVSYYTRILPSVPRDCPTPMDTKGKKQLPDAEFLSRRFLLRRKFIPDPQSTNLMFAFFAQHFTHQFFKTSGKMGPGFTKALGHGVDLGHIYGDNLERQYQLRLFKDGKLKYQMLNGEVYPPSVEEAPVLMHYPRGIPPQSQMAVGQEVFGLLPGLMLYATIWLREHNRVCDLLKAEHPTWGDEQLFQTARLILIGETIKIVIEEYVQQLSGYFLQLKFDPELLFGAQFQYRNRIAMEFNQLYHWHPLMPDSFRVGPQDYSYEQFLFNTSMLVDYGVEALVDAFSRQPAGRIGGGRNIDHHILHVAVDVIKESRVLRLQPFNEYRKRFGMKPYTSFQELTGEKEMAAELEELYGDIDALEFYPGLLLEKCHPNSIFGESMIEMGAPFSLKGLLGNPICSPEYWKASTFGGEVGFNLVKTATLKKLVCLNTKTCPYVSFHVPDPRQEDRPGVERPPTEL

[1] = molecular target: T4, Horseradish peroxidase (HRP) (Armoracia rusticana, UniProt P00433); experiment: Reducing substrate specificity assay (HRP-catalysed reduction of PPHP to PPA, HPLC); format: biochemical; conditions: for Index = concentration PPA/(concentration PPA+concentration PPHP): 100 microM PPHP, 0.1 M potassium citrate pH 5.5, 0.2 mM Tween-20, 25° C., 6 minutes, triplicate
T4 construct: purchased Sigma Chemical Corporation Type VI
T4 sequence (P00433 31-338 limits assumed): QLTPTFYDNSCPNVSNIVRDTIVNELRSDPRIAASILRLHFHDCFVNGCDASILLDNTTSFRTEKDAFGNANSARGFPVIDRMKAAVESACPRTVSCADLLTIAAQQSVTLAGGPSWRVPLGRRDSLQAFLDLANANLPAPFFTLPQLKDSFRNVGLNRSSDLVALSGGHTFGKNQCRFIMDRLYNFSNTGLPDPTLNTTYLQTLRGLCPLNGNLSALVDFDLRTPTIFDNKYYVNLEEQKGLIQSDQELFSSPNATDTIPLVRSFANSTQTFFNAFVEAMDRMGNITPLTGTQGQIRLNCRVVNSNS
Experimental: Incubations were performed in triplicate with a 25° C. shaker bath in 16×150 mm disposable glass test tubes. 60 nM HRP was incubated at 25° C. in 0.1 M potassium citrate buffer, […] containing 0.2 mM Tween 20, with 100 microM PPHP and 200 microM potential reducing substrate. The index value is defined as, Index=concentration PPA/(concentration PPA+concentration PPHP). Most reducing substrates were prepared daily as 8 mM stocks in either water, methanol, or methanol:water (1:1 v/v). DPBF was dissolved in acetone. Uric acid was dissolved in DMSO. Epinephrine required titration with dilute hydrochloric acid prior to dissolution in methanol. Indoleacetic acid, tryptophan, cysteine, and methionine were titrated with dilute potassium hydroxide prior to dissolution in methanol:water (1:1 v/v).
For the data in Table 1 hereinafter, reducing substrates (50 microliters of 8 mM stocks--see Table 1 for preparation) were transferred into 1.9 ml of 0.1 M potassium citrate buffer, pH 5.5, containing 0.2 mM Tween-20 and allowed to thermally equilibrate for 10 minutes. HRP (24 microl of a 5 microM stock) was added to each trial and preincubated for three minutes prior to the addition of PPHP (25 microl of 8 mM stock in methanol). Incubations were stopped at 6 minutes by pouring mixtures onto Baker SPE System columns (3 ml octyldecylsilyl, from J. T. Baker & Co.). The columns were prepared prior to use by passing 3×3 ml aliquots of water through the columns with the Baker SPE vacuum system. At the stop time, an individual trial was poured onto the column and aspirated to near dryness. Each individual trial was set aside until the reminder of the trials were treated in the same manner. After all incubation trials were partitioned onto the SPE columns, each individual incubation tube was washed with 2 ml of 0.2 mM Tween 20 in distilled water and poured onto the corresponding SPE column. This Tween 20/water wash was aspirated to near dryness with vacuum. Analytes were eluted into 12×76 mm disposable glass test tubes with 2×1 ml aliquots of methanol (HPLC grade, Fisher Scientific Co.). The sample collection rack for the Baker 10 SPE System was modified to accommodate these 12 mm diameter tubes. The SPE columns were aspirated dry at this point and discarded. An internal chromatographic standard of p-nitrobenzyl alcohol (25 microl of 8 mM stock solution in methanol) was added to each methanol eluent, mixed by vortexing, and then clarified by filtration through a 0.45 micron nylon Swinney type filter (Rainin Instrument Corp.). The filtered eluents were used directly for chromatographic analysis.
The Initial incubation conditions were 0.1 M potassium citrate buffer, pH 5.5, with 0.2 mM Tween 20, 200 microM reducing substrate, 60 nM HRP and […] PPHP (structure 1).
Quantitation was determined by adding an internal standard (p-nitrobenzyl alcohol: annotated as I.S. on chromatograms) and ratioing peak areas. Chromatograms are 40 microliters injections onto a 5 micron Zorbax octylsilyl reverse-phase column (DuPont Instrument Corp.) with an isocratic elution mobile of 56% v/v methanol in water at 2 ml per min. U.V. monitoring was with a fixed 254 nm detector (Varian 5000, Varian Instrument Corp.). Vertical numbers are associated with peak retention times in minutes (the integrator used was a Vista 402 System, Varian Instruments).
Analyte concentrations were calculated by an internal standard method of calculation. This required individual incubation chromatograms to be compared to a calibration chromatogram generated by chromatographing a 40 microliter sample aliquot of a solution of PPHP as described under calculations.

HRP = molecular target: T5, HRP (Armoracia rusticana, UniProt P00433); experiment: Steady-state kinetic assay (PPA production, SPE/HPLC); format: biochemical, horseradish; conditions: HRP with phenol as reducing substrate
T5 construct: purchased Sigma Chemical Corporation Type VI
T5 sequence (P00433 31-338 limits assumed): T4 sequence (P00433 31-338 limits assumed)
Experimental: The incubations were terminated at 2, 4, and 8 minutes by pouring the incubations onto SPE columns as described in Methods. […] The data points are the average of triplicates. […] All buffers contained 0.2 mM Tween-20. Incubations were stopped at 4 minutes by pouring onto SPE columns as described in Methods. Each data point is the average of triplicates. […] Incubations were stopped at 4 minutes by pouring on SPE columns as described in Methods. PPA concentrations were converted into velocities by dividing by the incubation time and assuming linear steady-state velocities over the first 8 minutes (see FIG. 3). Five replicates of each phenol concentration were assayed. Km and Vmax were determined by linear regression analysis upon the non-averaged data points.
We designed the assays with 4 minute termination times converting either the concentration of PPHP or PPA into velocities.

HRP isoenzymes = conditions: similar preparation of HRP isoenzymes, phenylperoxyacetic acid; cited from earlier work
HRP compound II = molecular target: T6, HRP compound II (Armoracia rusticana, UniProt P00433); conditions: pH 8.11; read-out: Km for the reaction with HRP compound II; cited from earlier work
T6 sequence (P00433 31-353): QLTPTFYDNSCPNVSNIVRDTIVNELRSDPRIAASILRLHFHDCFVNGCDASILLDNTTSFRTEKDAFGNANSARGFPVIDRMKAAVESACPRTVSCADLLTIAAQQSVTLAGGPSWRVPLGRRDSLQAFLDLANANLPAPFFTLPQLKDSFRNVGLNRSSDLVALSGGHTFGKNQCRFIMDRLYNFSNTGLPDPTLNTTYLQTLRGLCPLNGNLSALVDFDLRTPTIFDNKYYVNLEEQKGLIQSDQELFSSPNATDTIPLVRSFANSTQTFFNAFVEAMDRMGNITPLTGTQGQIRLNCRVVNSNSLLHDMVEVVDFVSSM

[2] = 60 nM HRP, 200 microM reducing substrate

OOCCC/C=C/c1ccccc1 [PPHP, 1-hydroperoxy-5-Phenyl-4-pentene]
suitability as peroxidase substrate (cytochrome P-450): excellent substrate
suitability as peroxidase substrate (glutathione peroxidase): excellent substrate
suitability as peroxidase substrate (catalase): excellent substrate
suitability as peroxidase substrate (lactoperoxidase): excellent substrate
stability (Stability of PPHP): stable if protected from light and metals
solubility (Solubility of PPHP): soluble in aqueous buffers
suitability as peroxidase substrate (Prostaglandin H Synthase; protaglandin H (PGH) synthase): excellent substrate
suitability as peroxidase substrate ([1]; HRP): excellent substrate

Oc1ccccc1 [Phenol, phenol]
turnover number of PHP reduction (HRP): 10500 min
Index of Efficiency of Reducing Substrates (Prostaglandin H Synthase; Prostaglandin H synthase, under the conditions for Table 1): .51
Index = concentration PPA/(concentration PPA+concentration PPHP) [1, 2]: 0.97 ± 0.01
reducing substrate quality for HRP (FIG. 1) ([1]; 200 microM reducing substrate, 60 nM HRP, pH 5.5): good

Oc1cccc(O)c1O [Pyrogallol, pyrogallol]
turnover for pyrogallol oxidation (HRP isoenzymes): 18500 min⁻¹
Index = concentration PPA/(concentration PPA+concentration PPHP) [1, 2]: 0.97 ± 0.01

Cc1ccc(O)cc1 [p-cresol]
Km (HRP compound II): ~180 µM
